Source: patent US7282491B2, “Prokaryotic proteasomal proteases of Mycobacterium tuberculosis (MTB) as targets for antibiotic therapy” (Cornell Research Foundation, Inc., priority 2002, dated 2007)

Tests used:
[1] = tested on: Rv2115c and Rv2097c mutants; type: cell-based, Mycobacterium tuberculosis

Compound: CC(C)C[C@H](NC(=O)[C@H](Cc1cccc2ccccc12)NC(=O)N1CCOCC1)B(O)O [MLN-273, N-[4-morpholine]carbonyl-β-[1-naphthyl]-L-alanine-L-leucine boronic acid]
- growth of Rv2115c and Rv2097c mutants under standard culture conditions [1]: suppressed the growth of these mutants to same extent as for wt Mtb
- augmentation of the toxicity of nitrite against the Rv2115c mutant (Rv2115c-mutant Mtb): augmented the toxicity of nitrite against the Rv2115c mutant
